Results as given in PubChem BioAssay (NCI).
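At the GI50, growth is halved. TGI: total growth inhibition.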

Experiments:
Test in all cases: NCI-60 cell line screen, 384-well format
786-0 renal = test system: 786-0 renal
A498 renal = test system: A498 renal
A549 NSCLC = test system: A549 NSCLC
ACHN renal = test system: ACHN renal
BT-549 breast = test system: BT-549 breast
CAKI-1 renal = test system: CAKI-1 renal
CCRF-CEM leukemia = test system: CCRF-CEM leukemia
COLO 205 colon = test system: COLO 205 colon
DU-145 prostate = test system: DU-145 prostate
EKVX NSCLC = test system: EKVX NSCLC
HCC-2998 colon = test system: HCC-2998 colon
HCT-15 colon = test system: HCT-15 colon
HL-60(TB) leukemia = test system: HL-60(TB) leukemia
HOP-62 NSCLC = test system: HOP-62 NSCLC
HOP-92 NSCLC = test system: HOP-92 NSCLC
HS 578T breast = test system: HS 578T breast
HT29 colon = test system: HT29 colon
IGROV1 ovarian = test system: IGROV1 ovarian
K-562 leukemia = test system: K-562 leukemia
KM12 colon = test system: KM12 colon
LOX IMVI melanoma = test system: LOX IMVI melanoma
M14 melanoma = test system: M14 melanoma
MALME-3M melanoma = test system: MALME-3M melanoma
MCF7 breast = test system: MCF7 breast
MDA-MB-231 breast = test system: MDA-MB-231 breast
MDA-MB-435 melanoma = test system: MDA-MB-435 melanoma
MDA-MB-468 breast = test system: MDA-MB-468 breast
MOLT-4 leukemia = test system: MOLT-4 leukemia
NCI-H226 lung = test system: NCI-H226 lung
NCI-H23 lung = test system: NCI-H23 lung
NCI-H322M lung = test system: NCI-H322M lung
NCI-H460 NSCLC = test system: NCI-H460 NSCLC
NCI-H522 lung = test system: NCI-H522 lung
NCI/ADR-RES ovarian = test system: NCI/ADR-RES ovarian
OVCAR-3 ovarian = test system: OVCAR-3 ovarian
OVCAR-4 ovarian = test system: OVCAR-4 ovarian
OVCAR-5 ovarian = test system: OVCAR-5 ovarian
OVCAR-8 ovarian = test system: OVCAR-8 ovarian
PC-3 prostate = test system: PC-3 prostate
RPMI-8226 leukemia = test system: RPMI-8226 leukemia
RXF 393 renal = test system: RXF 393 renal
SF-268 CNS = test system: SF-268 CNS
SF-295 CNS = test system: SF-295 CNS
SF-539 CNS = test system: SF-539 CNS
SK-MEL-28 melanoma = test system: SK-MEL-28 melanoma
SK-MEL-5 melanoma = test system: SK-MEL-5 melanoma
SK-OV-3 ovarian = test system: SK-OV-3 ovarian
SN12C renal = test system: SN12C renal
SNB-19 CNS = test system: SNB-19 CNS
SNB-75 CNS = test system: SNB-75 CNS
SW-620 colon = test system: SW-620 colon
T-47D breast = test system: T-47D breast
TK-10 renal = test system: TK-10 renal
UACC-257 melanoma = test system: UACC-257 melanoma
UACC-62 melanoma = test system: UACC-62 melanoma
UO-31 renal = test system: UO-31 renal

Compound: CC1(C)CN(c2cc(C(F)(F)F)cc3cncn23)CCC12NC(=O)NC2=O (configuration not stated)
- GI50 ([…]-0 renal): 35.1 µM
- TGI (786-0 renal): > 100 µM
- GI50 (A498 renal): 26 µM
- TGI (A498 renal): > 100 µM
- GI50 (A549 NSCLC): 35.3 µM
- TGI (A549 NSCLC): > 100 µM
- GI50 (ACHN renal): 38.2 µM
- TGI (ACHN renal): > 100 µM
- GI50 (BT-549 breast): 19.8 µM
- TGI (BT-549 breast): > 100 µM
- GI50 (CAKI-1 renal): 30.6 µM
- TGI (CAKI-1 renal): > 100 µM
- GI50 (CCRF-CEM leukemia): 12 µM
- TGI (CCRF-CEM leukemia): 26.7 µM
- GI50 (COLO 205 colon): 68.9 µM
- TGI (COLO 205 colon): > 100 µM
- GI50 (DU-145 prostate): 40 µM
- TGI (DU-145 prostate): > 100 µM
- GI50 (EKVX NSCLC): 15.1 µM
- TGI (EKVX NSCLC): 59.7 µM
- GI50 (HCC-2998 colon): 29.4 µM
- TGI (HCC-2998 colon): 73.9 µM
- GI50 (HCT-15 colon): 40.6 µM
- TGI (HCT-15 colon): > 100 µM
- GI50 (HL-60(TB) leukemia): 14.5 µM
- TGI (HL-60(TB) leukemia): 27.8 µM
- GI50 (HOP-62 NSCLC): 28.3 µM
- TGI (HOP-62 NSCLC): > 100 µM
- GI50 (HOP-92 NSCLC): 26.1 µM
- TGI (HOP-92 NSCLC): > 100 µM
- GI50 (HS 578T breast): 12.9 µM
- TGI (HS 578T breast): 35.6 µM
- GI50 (HT29 colon): 46 µM
- TGI (HT29 colon): > 100 µM
- GI50 (IGROV1 ovarian): 27.8 µM
- TGI (IGROV1 ovarian): 75.8 µM
- GI50 (K-562 leukemia): 42.6 µM
- TGI (K-562 leukemia): > 100 µM
- GI50 (KM12 colon): 36 µM
- TGI (KM12 colon): > 100 µM
- GI50 (LOX IMVI melanoma): 32.5 µM
- TGI (LOX IMVI melanoma): > 100 µM
- GI50 (M14 melanoma): 48.1 µM
- TGI (M14 melanoma): > 100 µM
- GI50 (MALME-3M melanoma): 28.1 µM
- TGI (MALME-3M melanoma): 88.7 µM
- GI50 (MCF7 breast): 26 µM
- TGI (MCF7 breast): 99.6 µM
- GI50 (MDA-MB-231 breast): 32.2 µM
- TGI (MDA-MB-231 breast): > 100 µM
- GI50 (MDA-MB-435 melanoma): 62.2 µM
- TGI (MDA-MB-435 melanoma): > 100 µM
- GI50 (MDA-MB-468 breast): 12.5 µM
- TGI (MDA-MB-468 breast): 35.2 µM
- GI50 (MOLT-4 leukemia): 12.3 µM
- TGI (MOLT-4 leukemia): 25.1 µM
- GI50 (NCI-H226 lung): 26.6 µM
- TGI (NCI-H226 lung): > 100 µM
- GI50 (NCI-H23 lung): 30.7 µM
- TGI (NCI-H23 lung): > 100 µM
- GI50 (NCI-H322M lung): 57.8 µM
- TGI (NCI-H322M lung): > 100 µM
- GI50 (NCI-H460 NSCLC): 38.1 µM
- TGI (NCI-H460 NSCLC): > 100 µM
- GI50 (NCI-H522 lung): 54 µM
- TGI (NCI-H522 lung): > 100 µM
- GI50 (NCI/ADR-RES ovarian): > 100 µM
- TGI (NCI/ADR-RES ovarian): > 100 µM
- GI50 (OVCAR-3 ovarian): 28.4 µM
- TGI (OVCAR-3 ovarian): > 100 µM
- GI50 (OVCAR-4 ovarian): 18.8 µM
- TGI (OVCAR-4 ovarian): 82.6 µM
- GI50 (OVCAR-5 ovarian): 39.4 µM
- TGI (OVCAR-5 ovarian): > 100 µM
- GI50 (OVCAR-8 ovarian): 33.5 µM
- TGI (OVCAR-8 ovarian): > 100 µM
- GI50 (PC-3 prostate): 26.2 µM
- TGI (PC-3 prostate): 99.2 µM
- GI50 (RPMI-8226 leukemia): 15.3 µM
- TGI (RPMI-8226 leukemia): 45.8 µM
- GI50 (RXF 393 renal): 29.4 µM
- TGI (RXF 393 renal): > 100 µM
- GI50 (SF-268 CNS): 26.9 µM
- TGI (SF-268 CNS): > 100 µM
- GI50 (SF-295 CNS): 24.8 µM
- TGI (SF-295 CNS): 74.8 µM
- GI50 (SF-539 CNS): 91.7 µM
- TGI (SF-539 CNS): > 100 µM
- GI50 (SK-MEL-28 melanoma): 47.8 µM
- TGI (SK-MEL-28 melanoma): > 100 µM
- GI50 (SK-MEL-5 melanoma): 33.5 µM
- TGI (SK-MEL-5 melanoma): 95.7 µM
- GI50 (SK-OV-3 ovarian): 40.9 µM
- TGI (SK-OV-3 ovarian): > 100 µM
- GI50 (SN12C renal): 40.4 µM
- TGI (SN12C renal): > 100 µM
- GI50 (SNB-19 CNS): 55.7 µM
- TGI (SNB-19 CNS): > 100 µM
- GI50 (SNB-75 CNS): 42.4 µM
- TGI (SNB-75 CNS): > 100 µM
- GI50 (SW-620 colon): > 100 µM
- TGI (SW-620 colon): > 100 µM
- GI50 (T-47D breast): 29.2 µM
- TGI (T-47D breast): > 100 µM
- GI50 (TK-10 renal): 35.5 µM
- TGI (TK-10 renal): > 100 µM
- GI50 (UACC-257 melanoma): 61.3 µM
- TGI (UACC-257 melanoma): > 100 µM
- GI50 (UACC-62 melanoma): 19.2 µM
- TGI (UACC-62 melanoma): 63.7 µM
- GI50 (UO-31 renal): 56.8 µM
- TGI (UO-31 renal): > 100 µM
